Tests used:
[1] = system: sunflower hybrids and lines (A122T, A205V, A205V/A122T); assay: Field trial North Dakota 2006, phytotoxicity ratings after imazamox or imazapyr, Example 3; format: in vivo, Helianthus annuus; settings: for Phytotoxicity Rating (% Crop Injury): 160 g ai/ha + 0.25% NIS
Method: • Spray volume: 10 gallons per acre (GPA) (or 100 liters/ha) for backpack sprayer or 20 GPA (or 200 liters/ha) for tractor mounted boom • Growth Stage at Herbicide Application: 2-4 leaves
Entry 15 (WT Maintainer line) was left unsprayed in all treatment blocks.
Phytotoxicity ratings were assessed at 7 and 21 days following herbicide application.
The data was subjected to an ANOVA analysis and the means from the 3 repetitions are presented in Table 7 (phytotoxicity at 7 days post-treatment) and Table 8 (phytotoxicity at 21 days post-treatment).

[2] = system: AHAS enzyme, A122T Homozygous sunflower; assay: AHAS enzyme activity assay, leaf extract; format: biochemical, Helianthus annuus; settings: A122T homozygous hybrid (Set 1); 100 μM
Method: (§1) Twelve greenhouse grown sunflower plants from each of the lines depicted in Table 21 were bulked and subjected to an AHAS enzyme activity assay via the method of Singh et al. (1988) Anal. Biochem. 171:173-179. Each activity assay was repeated twice. Due to the large number of samples, the experiment was split into two sets (Table 21).
(§2) Young, actively growing leaves, from four week old plantlets, were ground in a mortar and pestle with liquid N2 and extracted with a buffer composed of 100 mM Pyruvate, 200 mM KH2PO4, 20 mM MgCl2, 2 mM thiamine pyrophosphate and […]. Plant extracts were then spun through a 10 mL Zeba TM desalt spin column (Pierce #89893) as per the manufacturer's recommendation. The inhibition assay was performed as described by Singh et al. (1988) Anal. Biochem. 171:173-179. Assays were conducted in a 96-well format. Fifty μl of inhibitor was added to each well containing 50 μl of soluble protein extract to give final concentrations of 0.78, 1.56, 3.125, 6.25, 12.5, 25, 50 and 100 μM imazamox or 0.78, 1.56, 3.125, 6.25, 12.5, 25, 50 and 100 μM imazapyr. Zero herbicide controls were also included for each line. Reactions were processed as outlined by Singh et al. (1988) Anal. Biochem. 171:173-179. Absorbance was measured at 530 nm. AHAS activity, expressed as the mean of the absorbance values for each treatment, was presented as a percentage of the mean of the zero-herbicide controls.

[3] = system: AHAS enzyme, A122T/A205V Heterozygous sunflower; assay: AHAS enzyme activity assay, leaf extract; format: biochemical, Helianthus annuus; settings: A122T/A205V heterozygous hybrid (Set 1); 100 μM
Method: as §1, §2

[4] = system: AHAS enzyme, A205V Homozygous sunflower; assay: AHAS enzyme activity assay, leaf extract; format: biochemical, Helianthus annuus; settings: A205V homozygous hybrid (Set 1); 100 μM
Method: as §1, §2

[5] = system: sunflower GM40 (A122T), HA425 (A205V) and progeny; format: in vivo, Helianthus annuus
Method: To determine the phenotypic interactions of the resistance gene A122T and the Imr1 gene (A205V) already described in IMI-R sunflowers (HA425), F1, F2 and BC1F1 populations from the cross GM40 (A122T)/HA425 (A205V) were evaluated at two herbicide applications rates (80 and 320 g. a. i. Ha^−1 of imazapyr). […] When F2 and BC1F1 populations were scored at the higher herbicide rate (320 g. a. i. Ha-1), which discriminates both parents, segregation for susceptibility was observed. Only two phenotypic classes could be detected, a resistant class with plants without any injury or slight symptoms and a susceptible phenotype that was killed like the control line HA425.

## CC(C)C1(C)N=C(c2ncccc2C(=O)O)NC1=O (stereo not shown) [imazapyr]
[1]; 1-hybrid (WT × IMI restorer, A205 hetero), 7 DAT
  Phytotoxicity Rating (% Crop Injury): 16.7%
[1]; 1-hybrid (WT × IMI restorer, A205 hetero), 21 DAT
  Phytotoxicity Rating (% Crop Injury): 20.0%
[1]; 3-hybrid (WT × IMI restorer, A205 hetero), 7 DAT
  Phytotoxicity Rating (% Crop Injury): 35.0%
[1]; 3-hybrid (WT × IMI restorer, A205 hetero), 21 DAT
  Phytotoxicity Rating (% Crop Injury): 43.3%
[1]; 4-line (IMI Restorer, A205 homo), 7 DAT
  Phytotoxicity Rating (% Crop Injury): 11.7%
[1]; 4-line (IMI Restorer, A205 homo), 21 DAT
  Phytotoxicity Rating (% Crop Injury): 6.7%
[1]; 6-hybrid (IMI CMS × IMI restorer, A205 homo), 7 DAT
  Phytotoxicity Rating (% Crop Injury): 8.3%
[1]; 6-hybrid (IMI CMS × IMI restorer, A205 homo), 21 DAT
  Phytotoxicity Rating (% Crop Injury): 3.3%
[1]; 7-hybrid (WT-CMS × IMI restorer, A205 hetero), 7 DAT
  Phytotoxicity Rating (% Crop Injury): 21.7%
[1]; 7-hybrid (WT-CMS × IMI restorer, A205 hetero), 21 DAT
  Phytotoxicity Rating (% Crop Injury): 36.7%
[1]; 8-hybrid (WT × GM40 restorer, A122 hetero), 7 DAT
  Phytotoxicity Rating (% Crop Injury): 13.3%
[1]; 8-hybrid (WT × GM40 restorer, A122 hetero), 21 DAT
  Phytotoxicity Rating (% Crop Injury): 11.7%
[1]; 9-line (GM40 restorer, A122 homo), 7 DAT
  Phytotoxicity Rating (% Crop Injury): 8.3%
[1]; 9-line (GM40 restorer, A122 homo), 21 DAT
  Phytotoxicity Rating (% Crop Injury): 5.0%
[1]; 10-hybrid (IMI CMS × GM40 restorer, A205/A122 hetero/double), 7 DAT
  Phytotoxicity Rating (% Crop Injury): 3.3%
[1]; 10-hybrid (IMI CMS × GM40 restorer, A205/A122 hetero/double), 21 DAT
  Phytotoxicity Rating (% Crop Injury): 0.0%
[1]; 11-hybrid (GM40 CMS × IMI restorer, A205/A122 hetero/double), 7 DAT
  Phytotoxicity Rating (% Crop Injury): 3.3%
[1]; 11-hybrid (GM40 CMS × IMI restorer, A205/A122 hetero/double), 21 DAT
  Phytotoxicity Rating (% Crop Injury): 0.0%
[1]; 12-hybrid (IMI CMS × GM40 restorer, A205/A122 hetero/double), 7 DAT
  Phytotoxicity Rating (% Crop Injury): 5.0%
[1]; 12-hybrid (IMI CMS × GM40 restorer, A205/A122 hetero/double), 21 DAT
  Phytotoxicity Rating (% Crop Injury): 1.7%
[1]; 13-hybrid (GM40 CMS × GM40 restorer, A122 homo), 7 DAT
  Phytotoxicity Rating (% Crop Injury): 5.0%
[1]; 13-hybrid (GM40 CMS × GM40 restorer, A122 homo), 21 DAT
  Phytotoxicity Rating (% Crop Injury): 1.7%
[1]; 14-hybrid (GM40 CMS × GM40 restorer, A122 homo), 7 DAT
  Phytotoxicity Rating (% Crop Injury): 8.3%
[1]; 14-hybrid (GM40 CMS × GM40 restorer, A122 homo), 21 DAT
  Phytotoxicity Rating (% Crop Injury): 3.3%
[1]; 15-hybrid (WT × GM40 restorer, A122 hetero), 7 DAT
  Phytotoxicity Rating (% Crop Injury): 8.3%
[1]; 15-hybrid (WT × GM40 restorer, A122 hetero), 21 DAT
  Phytotoxicity Rating (% Crop Injury): 21.7%
[1]; 16-hybrid (WT × GM40 restorer, A122 hetero), 7 DAT
  Phytotoxicity Rating (% Crop Injury): 10.0%
[1]; 16-hybrid (WT × GM40 restorer, A122 hetero), 21 DAT
  Phytotoxicity Rating (% Crop Injury): 23.3%
[1]; heterozygous A205V entries, 160 g ai/ha, 21 DAT
  phytotoxicity: 20-43%
[2]
  AHAS activity: 64 % of untreated control
[3]
  AHAS activity: 60%
[4]
  AHAS activity: 42 % of untreated control
[5]; 80 g a.i./ha (1x, lower rate)
  susceptible plants in F2 and BC1F1 populations of GM40 (A122T)/HA425 (A205V): No susceptible plants were observed
[5]; HA425 (A205V), 320 g a.i./ha
  response of control line HA425: killed

From US20150148235A1, “HERBICIDE-RESISTANT SUNFLOWER PLANTS WITH MULTIPLE HERBICIDE RESISTANT ALLELES OF AHASL1 AND METHODS OF USE” (NIDERA S.A., priority 2013, published 2015)
